Laboratory results published in patent US11629171B2, “Beta-hairpin peptidomimetics” (POLYPHOR AG, priority 2017, dated 2023).
Converted amounts (≈) assume the structure as drawn. Where a SMILES comes first, the peptide text is derived from it. Bridges are numbered along the chain shown (N, C = ends). Roman numbers before positions name the chains, in order. [ ]: non-standard residue; d: D form. Tle = CC(C)(C)[C@H](N)C(=O)O; NMeV = CN[C@H](C(=O)O)C(C)C; dDab = NCC[C@@H](N)C(=O)O; hSer = N[C@@H](CCO)C(=O)O; Dab = NCC[C@H](N)C(=O)O; Dap = NC[C@H](N)C(=O)O

Assays:
[1] = system: Acinetobacter baumannii 872842; format: cell-based; conditions: 872842
How it was run: (§1)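 CLSI broth microdilution: inoculum ~10^6 CFU/mL in cation-adjusted Mueller-Hinton II broth, with peptide in serial two-fold dilutions plus Polysorbate 80 (0.002% final). MIC (μg/mL) is the lowest concentration without visible growth after 18-20 hours at 35° C.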

[2] = system: Acinetobacter baumannii DSM 30008; format: cell-based; conditions: DSM 30008
How it was run: as §1

[3] = system: Enterobacter cloacae 848840; format: cell-based; conditions: 848840
How it was run: as §1

Escherichia coli 926415 = format: cell-based; conditions: 926415
How it was run: as §1

[4] = system: Escherichia coli ATCC 25922; format: cell-based; conditions: ATCC 25922
How it was run: as §1

[5] = system: Klebsiella pneumoniae 968733; format: cell-based; conditions: 968733
How it was run: as §1

[6] = system: Klebsiella pneumoniae SSI #3010; format: cell-based; conditions: SSI #3010
How it was run: as §1

[7] = system: Pseudomonas aeruginosa ATCC 27853; format: cell-based; conditions: ATCC 27853
How it was run: as §1

[8] = system: human red blood cells (hRBC); test: Hemolysis; format: cell-based; conditions: red cells of human, 1 h, 200
How it was run: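 Read-out is supernatant absorbance at 540 nm, normalised to full lysis by 2% Triton X-100 and zero lysis by PBS with 10% water. Peptides (200 μg/mL) were exposed to 20% v/v washed human erythrocytes at 37° C for 1 h under shaking.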

male ICR mice = test: Tolerability in a mouse model (Maximum Tolerated Dose assay); format: in vivo; conditions: 2 × 30 mg/kg s.c. at a 12-hr interval, groups of 3
Protocol: The tolerability of the peptides was tested in a mouse model at Pharmacology Discovery Services Taiwan Ltd, Taipei, Taiwan. The peptides were administered subcutaneously (s.c.) at 30 mg/kg or 40 mg/kg, respectively; twice at a 12-hr interval, for assessment of possible adverse effects in the Maximum Tolerated Dose (MTD) assay in male ICR (Institute of Cancer Research) mice. The peptides were dissolved in 0.9% NaCl at the concentrations either of 6 or 8 mg/mL, respectively, based on the free base molecular weight. The pH values of dosing solutions were adjusted to 6.5-7.6 before s.c. administration. A dosing volume at 5 mL/kg and a concentration of 6 or 8 mg/mL, respectively, was applied. The fresh prepared stock solution were stored at 4° C. during the study. Male ICR mice weighing 23±3 g were provided by BioLasco Taiwan (under Charles River Laboratories Licensee). Animals were acclimated for 3 days prior to use and were confirmed to be in good health. The peptides were administered s.c. at 30 mg/kg or 40 mg/kg, respectively, twice at a 12-hr interval, to groups of 3 ICR male mice and observed for the presence of acute toxic symptoms (mortality, convulsions, tremors, muscle relaxation, sedation, etc.) and autonomic effects (diarrhea, salivation, lacrimation, vasodilation, piloerection, etc.) during the first 30 min. The peptides were administered again at a 12-hr (two total doses) interval, following the first dose. The animals were then observed again for the presence of acute toxic symptoms and autonomic effects during the first 30 min.

| MIC [1] [µg/mL] | MIC [2] [µg/mL] | MIC [3] [µg/mL] | MIC (Escherichia coli 926415) [µg/mL] | MIC [4] [µg/mL] | MIC [5] [µg/mL] | MIC [6] [µg/mL] | MIC [7] [µg/mL] | SMILES | Hemolysis at 200 μg/mL [8] [%] | Mortality and dose (male ICR mice) |
| --- | --- | --- | --- | --- | --- | --- | --- | --- | --- | --- |
| 0.125 (≈ 0.0544 µM) | 0.125 (≈ 0.0544 µM) | 0.25 (≈ 0.109 µM) | 1 (≈ 0.435 µM) | 0.125 (≈ 0.0544 µM) | 0.5 (≈ 0.218 µM) | 0.125 (≈ 0.0544 µM) | 0.125 (≈ 0.0544 µM) | CN[C@H](C(=O)N[C@H]1CSSC[C@@H](C(N)=O)NC(=O)[C@H](C(C)(C)C)NC(=O)[C@H](CO)NC(=O)[C@H](Cc2c[nH]c3ccccc23)NC(=O)[C@H](CCN)NC(=O)[C@@H](CCN)NC(=O)[C@H](CCC(=O)N[C@@H](CCN)C(=O)N[C@H](C(=O)N[C@@H](CN)C(=O)N[C@H]2CCNC(=O)[C@H]([C@@H](C)O)NC(=O)[C@H](CCN)NC(=O)[C@H](CCN)NC(=O)[C@H](CC(C)C)NC(=O)[C@@H](CC(C)C)NC(=O)[C@H](CCN)NC2=O)[C@@H](C)O)NC(=O)[C@H](CN)NC(=O)[C@H](Cc2ccc(O)cc2)NC1=O)C(C)C [Example 9] (I: H-[NMeV]CY[Dap]E[dDab][Dab]WS[Tle]C-NH2 / II: [Dab]T[Dap][Dab][Dab][dL]L[Dab][Dab]T; disulfide I:2-I:11; amide I:5-II:N; lactam II:4-II:C) | <1 |  |
| 0.125 (≈ 0.0538 µM) | 0.125 (≈ 0.0538 µM) | 0.25 (≈ 0.108 µM) | 8 (≈ 3.44 µM) | 0.25 (≈ 0.108 µM) | 0.5 (≈ 0.215 µM) | 0.25 (≈ 0.108 µM) | 0.125 (≈ 0.0538 µM) | CC(=O)N[C@H](C(=O)N[C@H]1CSSC[C@@H](C(N)=O)NC(=O)[C@H](C(C)(C)C)NC(=O)[C@H](CO)NC(=O)[C@H](Cc2c[nH]c3ccccc23)NC(=O)[C@H](CCN)NC(=O)[C@@H](CCN)NC(=O)[C@H](CCC(=O)N[C@@H](CCN)C(=O)N[C@H](C(=O)N[C@@H](CN)C(=O)N[C@H]2CCNC(=O)[C@H]([C@@H](C)O)NC(=O)[C@H](CCN)NC(=O)[C@H](CCN)NC(=O)[C@H](CC(C)C)NC(=O)[C@@H](CC(C)C)NC(=O)[C@H](CCN)NC2=O)[C@@H](C)O)NC(=O)[C@H](CN)NC(=O)[C@H](Cc2ccc(O)cc2)NC1=O)C(C)C [Example 10] (I: Ac-VCY[Dap]E[dDab][Dab]WS[Tle]C-NH2 / II: [Dab]T[Dap][Dab][Dab][dL]L[Dab][Dab]T; disulfide I:2-I:11; amide I:5-II:N; lactam II:4-II:C) | <1 |  |
| 8 (≈ 3.42 µM) | 0.125 (≈ 0.0534 µM) | 2 (≈ 0.854 µM) | 4 (≈ 1.71 µM) | 0.125 (≈ 0.0534 µM) | 4 (≈ 1.71 µM) | 0.125 (≈ 0.0534 µM) | 0.25 (≈ 0.107 µM) | CC(=O)N[C@H](C(=O)N[C@H](C(=O)N[C@@H](Cc1ccc(O)cc1)C(=O)N[C@H]1CSSC[C@@H](C(=O)N[C@H](C(=O)N[C@@H](CO)C(N)=O)C(C)C)NC(=O)[C@H](Cc2c[nH]c3ccccc23)NC(=O)[C@H](CCO)NC(=O)[C@@H](CCN)NC(=O)[C@H](CCC(=O)N[C@@H](CCN)C(=O)N[C@H](C(=O)N[C@@H](CCN)C(=O)N[C@H]2CCNC(=O)[C@H]([C@@H](C)O)NC(=O)[C@H](CCN)NC(=O)[C@H](CCN)NC(=O)[C@H](CC(C)C)NC(=O)[C@@H](CC(C)C)NC(=O)[C@H](CCN)NC2=O)[C@@H](C)O)NC1=O)[C@@H](C)O)C(C)C [Example 11] (I: Ac-VTYCE[dDab][hSer]WCVS-NH2 / II: [Dab]T[Dab][Dab][Dab][dL]L[Dab][Dab]T; disulfide I:4-I:9; amide I:5-II:N; lactam II:4-II:C) | 1 |  |
| 0.5 (≈ 0.215 µM) | 0.125 (≈ 0.0537 µM) | 0.25 (≈ 0.107 µM) | 0.5 (≈ 0.215 µM) | 0.125 (≈ 0.0537 µM) | 4 (≈ 1.72 µM) | 0.25 (≈ 0.107 µM) | 0.25 (≈ 0.107 µM) | CN[C@H](C(=O)N[C@H]1CSSC[C@@H](C(N)=O)NC(=O)[C@H](C(C)C)NC(=O)[C@H](CCO)NC(=O)[C@H](Cc2c[nH]c3ccccc23)NC(=O)[C@H](CCO)NC(=O)[C@@H](CCN)NC(=O)[C@H](CCC(=O)N[C@@H](CCN)C(=O)N[C@H](C(=O)N[C@@H](CCN)C(=O)N[C@H]2CCNC(=O)[C@H]([C@@H](C)O)NC(=O)[C@H](CCN)NC(=O)[C@H](CCN)NC(=O)[C@H](CC(C)C)NC(=O)[C@@H](CC(C)C)NC(=O)[C@H](CCN)NC2=O)[C@@H](C)O)NC(=O)[C@H](CCN)NC(=O)[C@H](Cc2ccc(O)cc2)NC1=O)C(C)C [Example 57] (I: H-[NMeV]CY[Dab]E[dDab][hSer]W[hSer]VC-NH2 / II: [Dab]T[Dab][Dab][Dab][dL]L[Dab][Dab]T; disulfide I:2-I:11; amide I:5-II:N; lactam II:4-II:C) | 3 |  |

| SMILES | MIC [1] [µg/mL] | MIC [2] [µg/mL] | MIC [3] [µg/mL] | MIC (Escherichia coli 926415) [µg/mL] | MIC [4] [µg/mL] | MIC [5] [µg/mL] | MIC [6] [µg/mL] | MIC [7] [µg/mL] | Hemolysis at 200 μg/mL [8] [%] | Mortality and dose (male ICR mice) |
| --- | --- | --- | --- | --- | --- | --- | --- | --- | --- | --- |
| CC(=O)N[C@H](C(=O)N[C@H]1CSSC[C@@H](C(=O)N[C@@H](CO)C(N)=O)NC(=O)[C@H](C(C)C)NC(=O)[C@H](CO)NC(=O)[C@H](Cc2c[nH]c3ccccc23)NC(=O)[C@H](CCO)NC(=O)[C@@H](CCN)NC(=O)[C@H](CCC(=O)N[C@@H](CCN)C(=O)N[C@H](C(=O)N[C@@H](CCN)C(=O)N[C@H]2CCNC(=O)[C@H]([C@@H](C)O)NC(=O)[C@H](CCN)NC(=O)[C@H](CCN)NC(=O)[C@H](CC(C)C)NC(=O)[C@@H](CC(C)C)NC(=O)[C@H](CCN)NC2=O)[C@@H](C)O)NC(=O)[C@H](CCN)NC(=O)[C@H](Cc2ccc(O)cc2)NC1=O)C(C)C [Ex. 41] (I: Ac-VCY[Dab]E[dDab][hSer]WSVCS-NH2 / II: [Dab]T[Dab][Dab][Dab][dL]L[Dab][Dab]T; disulfide I:2-I:11; amide I:5-II:N; lactam II:4-II:C) | 0.125 (≈ 0.0515 µM) | 0.0625 (≈ 0.0258 µM) | 0.25 (≈ 0.103 µM) | 0.25 (≈ 0.103 µM) | 0.0625 (≈ 0.0258 µM) | 0.125 (≈ 0.0515 µM) | 0.125 (≈ 0.0515 µM) | 0.25 (≈ 0.103 µM) | <1 | 0/3 died at 2 × 30 mg/kg |
| CN[C@H](C(=O)N[C@H]1CSSC[C@@H](C(=O)N[C@@H](CO)C(=O)O)NC(=O)[C@H](C(C)C)NC(=O)[C@H](CO)NC(=O)[C@H](Cc2c[nH]c3ccccc23)NC(=O)[C@H](CCO)NC(=O)[C@@H](CCN)NC(=O)[C@H](CCC(=O)N[C@@H](CCN)C(=O)N[C@H](C(=O)N[C@@H](CCN)C(=O)N[C@H]2CCNC(=O)[C@H]([C@@H](C)O)NC(=O)[C@H](CCN)NC(=O)[C@H](CCN)NC(=O)[C@H](CC(C)C)NC(=O)[C@@H](CC(C)C)NC(=O)[C@H](CCN)NC2=O)[C@@H](C)O)NC(=O)[C@H](CCN)NC(=O)[C@H](Cc2ccc(O)cc2)NC1=O)C(C)C [Ex. 42] (I: H-[NMeV]CY[Dab]E[dDab][hSer]WSVCS-OH / II: [Dab]T[Dab][Dab][Dab][dL]L[Dab][Dab]T; disulfide I:2-I:11; amide I:5-II:N; lactam II:4-II:C; C-terminus assumed) | 1 (≈ 0.417 µM) | 0.5 (≈ 0.208 µM) | 4 (≈ 1.67 µM) | 0.5 (≈ 0.208 µM) | 0.125 (≈ 0.0521 µM) | 2 (≈ 0.833 µM) | 0.25 (≈ 0.104 µM) | 0.25 (≈ 0.104 µM) | <1 | 0/3 died at 2 × 30 mg/kg |
| CN[C@H](C(=O)N[C@H]1CSSC[C@@H](C(=O)N[C@@H](CO)C(N)=O)NC(=O)[C@H](C(C)C)NC(=O)[C@H](CO)NC(=O)[C@H](Cc2c[nH]c3ccccc23)NC(=O)[C@H](CCO)NC(=O)[C@@H](CCN)NC(=O)[C@H](CCC(=O)N[C@@H](CCN)C(=O)N[C@H](C(=O)N[C@@H](CCN)C(=O)N[C@H]2CCNC(=O)[C@H]([C@@H](C)O)NC(=O)[C@H](CCN)NC(=O)[C@H](CCN)NC(=O)[C@H](CC(C)C)NC(=O)[C@@H](CC(C)C)NC(=O)[C@H](CCN)NC2=O)[C@@H](C)O)NC(=O)[C@H](CCN)NC(=O)[C@H](Cc2ccc(O)cc2)NC1=O)C(C)C [Ex. 43] (I: H-[NMeV]CY[Dab]E[dDab][hSer]WSVCS-NH2 / II: [Dab]T[Dab][Dab][Dab][dL]L[Dab][Dab]T; disulfide I:2-I:11; amide I:5-II:N; lactam II:4-II:C) | 0.125 (≈ 0.0521 µM) | 0.5 (≈ 0.208 µM) | 2 (≈ 0.834 µM) | 0.5 (≈ 0.208 µM) | 0.25 (≈ 0.104 µM) | 2 (≈ 0.834 µM) | 0.25 (≈ 0.104 µM) | 0.5 (≈ 0.208 µM) | <1 | 0/3 died at 2 × 30 mg/kg |
